According to ChEMBL document CHEMBL4321873, “Optimization of Orally Bioavailable PI3Kδ Inhibitors and Identification of Vps34 as a Key Selectivity Target” (J Med Chem, 2020):
≈ marks a conversion by molar mass, not a printed value.

What was measured:
[1] = Permeability of the compound in pH 7.05 phosphate buffer measured after 3 hrs by artificial membrane permeability assay based LC-MS analysis; type: ADME; conditions: PAMPA, read-out: permeability
[2] = Clearance in Wistar Han rat at 1 mg/kg, iv by LC-MS/MS analysis; type: ADME, organism-based; conditions: in vivo
[3] = Intrinsic clearance in rat hepatocytes at 0.5 uM measured after 10 mins by LC-MS/MS analysis; type: ADME, cell-based, Hepatocyte
[4] = Intrinsic clearance in human hepatocytes at 0.5 uM measured after 10 mins by LC-MS/MS analysis; type: ADME, cell-based, Hepatocyte
[5] = Clearance in Wistar Han rat at 1 mg/kg, iv by LC-MS/MS analysis relative to hepatic blood flow; type: ADME, organism-based; conditions: in vivo
[6] = Intrinsic clearance in minipig hepatocytes at 0.5 uM measured after 10 mins by LC-MS/MS analysis; type: ADME, cell-based, Sus scrofa domesticus, Hepatocyte; conditions: pig
[7] = Half life in Wistar Han rat at 1 mg/kg, iv by LC-MS/MS analysis; type: ADME, organism-based; conditions: in vivo
[8] = Kinetic solubility of the compound in pH 7.4 phosphate buffered saline measured after 1 hr by CLND method; type: physicochemical; conditions: read-out: Kinetic_solubility
[9] = Volume of distribution at steady state in Wistar Han rat at 1 mg/kg, iv or 1 mg/kg, po by LC-MS/MS analysis; type: ADME, organism-based; conditions: in vivo, read-out: Vdss
[10] = AUC (infinity) in Wistar Han rat at 1 mg/kg, po by LC-MS/MS analysis; type: ADME, organism-based; design: dose 1 mg/kg, time infinity, route oral; conditions: in vivo
[11] = AUC (0 to 4 hrs) in Wistar Han rat at 300 mg/kg, po administered once daily for 7 days by LC-MS/MS analysis; type: ADME, organism-based; design: dose 300 mg/kg, time < 4 hr, route oral; conditions: in vivo
[12] = Time at which plasma concentration stays at 10 times Kd(app) for binding affinity to PI3Kdelta in human HL60 cell extract in Wistar Han rat at 30 to 300 mg/kg, po administered once daily for 7 days; type: ADME, organism-based; conditions: in vivo, 168 h
[13] = Time at which plasma concentration stays at 10 times Kd(app) for binding affinity to PI3Kdelta in human HL60 cell extract in Wistar Han rat at 10 to 100 mg/kg, po administered twice daily for 7 days; type: ADME, organism-based; conditions: in vivo, 168 h
[14] = AUC (0 to 24 hrs) in Wistar Han rat at 100 mg/kg, po administered once daily for 7 days by LC-MS/MS analysis; type: ADME, organism-based; design: time < 24 hr, dose 100 mg/kg, route oral; conditions: in vivo
[15] = AUC (0 to 24 hrs) in Wistar Han rat at 30 mg/kg, po administered once daily for 7 days by LC-MS/MS analysis; type: ADME, organism-based; design: dose 30 mg/kg, time < 24 hr, route oral; conditions: in vivo
[16] = Time at which plasma concentration stays at 10 times Kd(app) for binding affinity to VPS34 in human HL60 cell extract in Wistar Han rat at 100 mg/kg, po administered once daily for 7 days; type: ADME, organism-based; conditions: in vivo, 168 h
[17] = Oral bioavailability in Wistar Han rat at 1 mg/kg by LC-MS/MS analysis; type: ADME, organism-based; conditions: in vivo
[18] = AUC (0 to 24 hrs) in Wistar Han rat at 10 mg/kg, po administered twice daily for 7 days by LC-MS/MS analysis; type: ADME, organism-based; design: dose 10 mg/kg, time < 24 hr, route oral; conditions: in vivo
[19] = AUC (0 to 24 hrs) in Wistar Han rat at 100 mg/kg, po administered twice daily for 7 days by LC-MS/MS analysis; type: ADME, organism-based; design: dose 100 mg/kg, time < 24 hr, route oral; conditions: in vivo
[20] = AUC (0 to 24 hrs) in Wistar Han rat at 30 mg/kg, po administered twice daily for 7 days by LC-MS/MS analysis; type: ADME, organism-based; design: dose 30 mg/kg, time < 24 hr, route oral; conditions: in vivo

SMILES	clearance [2] [mL/min/kg]	Intrinsic clearance (CLint) [3] [mL/min/g]	intrinsic clearance [4] [mL/min/g]	CL [5] [%]	CLH [6] [mL/min/g]	half-life [7] [h]	solubility kinetic at 1 h [8] [µg/mL]	Vd [9] [L/kg]	AUC(0-inf) [10] [ng·h/mL]	also measured
COc1ncc(-c2cc3c(c(OCCN4CCC(C(C)(C)O)CC4)c2)COC3)cc1NS(=O)(=O)CC#N	–	–	–	–	–	–	–	–	–	Papp at 3 h [1]: < 0.3 ×10⁻⁶ cm/s
COc1ncc(-c2cc3c(c(OCCN4CCC(C(C)(C)O)CC4)c2)CCOC3)cc1NS(C)(=O)=O	109	–	–	–	–	–	–	–	–	–
COCCS(=O)(=O)Nc1cc(-c2cc3c(c(OCCN4CCC(C(C)(C)O)CC4)c2)COC3)cnc1OC	–	1.6	< 0.9	28	–	–	–	–	–	Papp at 3 h [1]: < 0.3 ×10⁻⁶ cm/s
COCCS(=O)(=O)Nc1cc(-c2cc3c(c(OCCN4CCC(C(C)(C)O)CC4)c2)CCOC3)cnc1OC	41	< 0.9	< 0.9	–	< 0.9	2.7	≥ 184	6.9	–	–
COc1ncc(-c2cc3c(c(OCCN4CCC(C(C)(C)O)CC4)c2)COC3)cc1NS(C)(=O)=O	48	2.5	< 0.9	62	< 0.9	2.1	197 (≈ 390 µM)	5.9	148	AUC at 4 h [11]: 27500 ng·h/mL; Time [12]: 24 h; Time [13]: 24 h; AUC at 24 h [14]: 26300 ng·h/mL; AUC at 24 h [15]: 5000 ng·h/mL; Time [16]: 24 h; bioavailability [17]: 32%
COc1ncc(-c2cc3c(c(NC(=O)CN4CCOCC4)c2)COC3)cc1NS(C)(=O)=O	–	–	–	–	–	–	–	–	673	–
COc1ncc(-c2cc(OCCN3CCC(C(C)(C)O)CC3)c3c(c2)[C@@H](C)OC3)cc1NS(C)(=O)=O	–	9.7	< 0.9	–	–	–	–	–	–	–
COCCS(=O)(=O)Nc1cc(-c2cc3c(c(OC[C@H]4CN(C5COC5)CCO4)c2)COC3)cnc1OC	22	1.2	< 0.3	28	0.9	3.2	≥ 270	2	829	AUC at 24 h [18]: 12600 ng·h/mL; Time [12]: 24 h; AUC at 24 h [19]: 114000 ng·h/mL; Time [13]: 24 h; AUC at 24 h [20]: 37400 ng·h/mL; bioavailability [17]: 84%
COc1ncc(-c2cc(OCCN3CCC(C(C)(C)O)CC3)c3c(c2F)COC3)cc1NS(C)(=O)=O	–	4.5	< 0.9	–	–	–	–	–	–	–
